The subject of data set [1] is Sclerotinia sclerotiorum. Nature of the data set: Sclerotinia sclerotiorum liquid culture (cottony rot / white mold). To be noted: PDB, 24° C., 3-4 days after application, read-out: control of Sclerotinia sclerotiorum (inhibition of growth, photometric). Format: cell-based. Put shortly: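 Mycelia fragments of Sclerotinia sclerotiorum in potato dextrose broth were added to compound in DMSO. Cultures incubated at 24° C; growth inhibition determined photometrically 3-4 days after application.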

Data set [2] has as its system Mycosphaerella graminicola (Septoria tritici). As to the kind of experiment: Mycosphaerella graminicola (Septoria tritici) / liquid culture (Septoria blotch). To be noted: Zymoseptoria tritici, PDB, 24° C., 4-5 days after application, read-out: control of Mycosphaerella graminicola (inhibition of growth, photometric). It counts as cell-based. Put shortly: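 Growth inhibition was read photometrically after 4–5 days at 24 °C. The test compound was applied at 200 ppm from DMSO solution, then PDB broth seeded with conidia taken straight from cryogenic storage was added.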

For data set [3], the system named is Mycosphaerella arachidis (Cercospora arachidicola). As to the kind of experiment: Mycosphaerella arachidis (Cercospora arachidicola) / liquid culture (early leaf spot). It counts as cell-based. The note with it: PDB, 24° C., 4-5 days after application, read-out: control of Mycosphaerella arachidis (inhibition of growth, photometric). As for the experimental part:
Mycosphaerella Arachidis (Cercospora arachidicola)/Liquid Culture (Early Leaf Spot): Conidia of the fungus from cryogenic storage were directly mixed into nutrient broth (PDB potato dextrose broth). After placing a DMSO solution of test compound into a 96-well microtiter plate at an application rate of 200 ppm, the nutrient broth containing the fungal spores was added. The test plates are incubated at 24° C. and the inhibition of growth was determined photometrically 4-5 days after application.

Data set [4] has as its system Glomerella lagenarium (Colletotrichum lagenarium). Nature of the data set: Glomerella lagenarium (Colletotrichum lagenarium) / liquid culture (anthracnose). Format: cell-based. To be noted: Colletotrichum orbiculare, PDB, 24° C., 3-4 days after application, read-out: control of Glomerella lagenarium (inhibition of growth, photometric). The essentials:
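Test compound, delivered in DMSO at an application rate of 200 ppm, was combined with spore-containing PDB. Photometric growth-inhibition measurement followed 3-4 days of incubation at 24° C.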

The test system of data set [5] is Puccinia recondita f. sp. Tritici. As to the kind of experiment: Puccinia recondita f. sp. tritici / wheat / leaf disc preventative (brown rust). To be noted: foliar, wheat leaf segments cv Kanzler, inoculated 1 day after application, assessed 7-9 days after application, read-out: control of Puccinia recondita f. sp. Tritici (percent disease control compared to untreated). It counts as in vivo. Put shortly:
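Preventative test: percent disease control relative to untreated leaf segments was assessed 7-9 days post-application. Wheat (cv Kanzler) leaf discs were treated at 200 ppm and spore-inoculated 1 day afterwards. Discs were held at 19° C and 75% relative humidity under a 12/12 h light cycle.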

The subject of data set [6] is Plasmopara viticola. As to the kind of experiment: Plasmopara viticola / grape / leaf disc preventative. Format: in vivo. To be noted: foliar, grape vine leaf disks, inoculated 1 day after application, assessed 6-8 days after application, read-out: control of Plasmopara viticola (percent disease control compared to untreated).
The test system of data set [7] is Gaeumannomyces graminis. Nature of the data set: Gaeumannomyces graminis / liquid culture (take-all of cereals). To be noted: PDB, 24° C., 4-5 days after application, read-out: control of Gaeumannomyces graminis (inhibition of growth, photometric). Format: cell-based. The essentials:
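Growth inhibition, measured by photometry 4-5 days post-application at 24 °C, of fungal mycelial fragments in PDB broth. Test compound applied as DMSO solution at 200 ppm.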

The test system of data set [8] is Monographella nivalis (Microdochium nivale). As to the kind of experiment: Monographella nivalis (Microdochium nivale) / liquid culture (foot rot cereals). To be noted: PDB, 24° C., 4-5 days after application, read-out: control of Monographella nivalis (inhibition of growth, photometric). Format: cell-based. Put shortly: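 Cryostored conidia in potato dextrose broth were added to test compound dispensed from DMSO at 200 ppm. Plates were kept at 24° C, and growth inhibition was read photometrically 4-5 days after application.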

In data set [9] the test system is Thanatephorus cucumeris (Rhizoctonia solani). Nature of the data set: Thanatephorus cucumeris (Rhizoctonia solani) / liquid culture (foot rot, damping-off). Format: cell-based. The note with it: PDB, 24° C., 3-4 days after application, read-out: control of Thanatephorus cucumeris (inhibition of growth, photometric). Put shortly: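 At 200 ppm, compounds in DMSO were combined with fresh liquid-culture mycelia in PDB and kept at 24° C; photometric measurement of growth inhibition after 3-4 days.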

The subject of data set [10] is Pyrenophora teres. Nature of the data set: Pyrenophora teres / barley / leaf disc preventative (net blotch). It counts as in vivo. The note with it: foliar, barley leaf segments cv Hasso, inoculated two days after application, assessed 5-7 days after application, read-out: control of Pyrenophora teres (disease control compared to untreated). Put shortly: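 Preventative leaf-disc test: 200 ppm spray, then spore inoculation after two days on barley cv Hasso segments. Incubation 20 °C, 65% relative humidity, 12 h light/12 h dark; efficacy rated against untreated checks at 5-7 days post-application.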

Data set [11] has as its system Botryotinia fuckeliana (Botrytis cinerea). As to the kind of experiment: Botryotinia fuckeliana (Botrytis cinerea) / liquid culture (gray mould). To be noted: Vogels broth, 24° C., 3-4 days after application, read-out: control of Botryotinia fuckeliana (inhibition of growth, photometric). Format: cell-based. The essentials:
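Test compound was applied at 200 ppm in DMSO, then Vogels nutrient broth containing cryo-stored B. cinerea conidia was added. Photometric growth-inhibition reading followed after 3-4 days at 24 °C.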

The test system of data set [12] is Phaeosphaeria nodorum (Septoria nodorum). Nature of the data set: Phaeosphaeria nodorum (Septoria nodorum) / wheat / leaf disc preventative (glume blotch). To be noted: Parastagonospora nodorum, foliar, wheat leaf segments cv Kanzler, inoculated 2 days after application, assessed 5-7 days after application, read-out: control of Phaeosphaeria nodorum (percent disease control compared to untreated). Format: in vivo. Put shortly:
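Wheat leaf segments (cv Kanzler) on agar sprayed with compound at 200 ppm, inoculated with spores 2 days later. Incubated at 20° C., 75% relative humidity, 12/12 h light/dark; percent disease control versus untreated scored 5-7 days after application.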

The subject of data set [13] is Blumeria graminis f. Sp. Tritici (Erysiphe graminis f. Sp. Tritici). As to the kind of experiment: Blumeria graminis f. sp. tritici / wheat / leaf disc preventative (powdery mildew on wheat). To be noted: foliar, wheat leaf segments cv. Kanzler, inoculated 1 day after application, assessed 6-8 days after application, read-out: control of Blumeria graminis (percent disease control compared to untreated). It counts as in vivo. As to the method: Blumeria graminis f. Sp. Tritici (Erysiphe graminis f. Sp. Tritici)/Wheat/Leaf Disc Preventative (Powdery Mildew on Wheat):
Wheat leaf segments cv. Kanzler were placed on agar in a 24-well plate and sprayed with the formulated test compound diluted in water at an application rate of 200 ppm. The leaf disks were inoculated by shaking powdery mildew infected plants above the test plates 1 day after application. The inoculated leaf disks were incubated at 20° C. and 60% relative humidity under a light regime of 24 h darkness followed by 12 h/12 h (dark/light) in a climate chamber and the activity of a compound was assessed as percent disease control compared to untreated when an appropriate level of disease damage appears on untreated check leaf segments (6-8 days after application). The following compounds gave at least 80% control of Blumeria graminis at 200 ppm when compared to untreated control leaf disks under the same conditions, which show extensive disease development: 2, 13, 23, 50, 59, 61, 67, 75, 85, 86, 89, 90, 93, 102, 103, 107, 134, 136, 137, 138, 139, 141, 145, 151, 153, 154, 163, 173, 174

On to `CCn1c(-n2ncnc2N)nc2cncc(-c3cccc4c3OC(F)(F)O4)c21` [Compound 48, 2-[7-(2,2-difluoro-1,3-benzodioxol-4-yl)-1-ethylimidazo[4,5-c]pyridin-2-yl]-1,2,4-triazol-3-amine], for which the inhibition at 20 ppm in data set [1], in [2], in data set [3], in [4], in data set [7] and in data set [8] was not below 80% throughout. In addition, the inhibition at 20 ppm in data set [9] and in data set [11] was not below 80% each time. Also, the pest or weed control at 200 ppm in [5], in data set [6], in data set [10] and in [12] was not below 80% in each case.
Regarding `CCn1c(-n2ncnc2N)nc2cncc(-c3cncnc3)c21` [Compound 50, 2-(1-ethyl-7-pyrimidin-5-ylimidazo[4,5-c]pyridin-2-yl)-1,2,4-triazol-3-amine], in [13], the pest or weed control at 200 ppm was not below 80%.
Molecule `CCn1c(-n2ncnc2N)nc2cncc(C3=CCN(C(=O)OC(C)(C)C)CC3)c21` [Compound 107, tert-butyl 4-[2-(5-amino-1,2,4-triazol-1-yl)-1-ethylimidazo[4,5-c]pyridin-7-yl]-3,6-dihydro-2H-pyridine-1-carboxylate] returned a melting point of 183 to 186 °C. The pest or weed control at 200 ppm in [13] was not below 80%.
In turn, `CCn1c(-n2ncnc2N)nc2cncc(C3CC(c4ccccc4)=NO3)c21` (stereo not drawn) [Compound 109, 2-[1-ethyl-7-(3-phenyl-4,5-dihydro-1,2-oxazol-5-yl)imidazo[4,5-c]pyridin-2-yl]-1,2,4-triazol-3-amine] yielded a melting point of 201 to 209 °C. In addition, in data set [2], the inhibition at 20 ppm was not below 80%. Moreover, the pest or weed control at 200 ppm in data set [5] was not below 80%. Also, the pest or weed control at 200 ppm in [6] is not below 80%. The inhibition at 20 ppm in data set [7] was not below 80%. Further, in [9], the inhibition at 20 ppm is not below 80%. Also, the pest or weed control at 200 ppm in data set [10] was not below 80%. Also, the inhibition at 20 ppm in data set [11] was not below 80%.
Regarding `CCON=C(C)c1cncc2nc(-n3ncnc3N)n(CC)c12` [Compound 134], the melting point was in the range of 160 to 165 °C. Besides, the pest or weed control at 200 ppm in data set [13] is not below 80%. In addition, the inhibition at 20 ppm in [2] is not below 80%. In addition, the inhibition at 20 ppm in data set [3] is not below 80%. Further, the pest or weed control at 200 ppm in [5] is not below 80%. For the same molecule, the inhibition at 20 ppm in [7] was not below 80%. Moreover, in data set [8], the inhibition at 20 ppm was not below 80%. Moreover, in data set [9], the inhibition at 20 ppm was not below 80%. Further, the pest or weed control at 200 ppm in [10] is not below 80%. Further, the inhibition at 20 ppm in [11] was not below 80%.
In turn, `CCn1c(-n2ncnc2N)nc2cncc(C(C)=NOCc3ccc(F)cc3)c21` [Compound 135] displayed a melting point of 175 to 187 °C. For the same molecule, the inhibition at 20 ppm in data set [2] is not below 80%. Also, the pest or weed control at 200 ppm in data set [5] was not below 80%. In data set [6], the pest or weed control at 200 ppm is not below 80%. The inhibition at 20 ppm in [7] is not below 80%. Besides, the inhibition at 20 ppm in [9] was not below 80%. Besides, in data set [10], the pest or weed control at 200 ppm was not below 80%. Also, the inhibition at 20 ppm in data set [11] is not below 80%.
`CCn1c(-n2ncnc2N)nc2cncc(C(C)=NO)c21` [Compound 136, 1-[2-(5-amino-1,2,4-triazol-1-yl)-1-ethyl-imidazo[4,5-c]pyridin-7-yl]ethanone oxime] showed a melting point of 228 to 240 °C. Also, the pest or weed control at 200 ppm in [13] is not below 80%. Further, the inhibition at 20 ppm in [4] was not below 80%. In addition, in data set [7], the inhibition at 20 ppm was not below 80%. Also, the pest or weed control at 200 ppm in data set [10] is not below 80%.
On to `C=CCON=C(C)c1cncc2nc(-n3ncnc3N)n(CC)c12` [Compound 138], for which the melting point was in the range of 142 to 146 °C. For the same molecule, the pest or weed control at 200 ppm in data set [13] was not below 80%. The inhibition at 20 ppm in data set [2] was not below 80%. Moreover, the inhibition at 20 ppm in [4] is not below 80%. In addition, the inhibition at 20 ppm in data set [7] was not below 80%. For the same molecule, the inhibition at 20 ppm in data set [8] is not below 80%. Also, the inhibition at 20 ppm in [9] is not below 80%. In addition, the pest or weed control at 200 ppm in data set [10] is not below 80%. In addition, the inhibition at 20 ppm in data set [11] was not below 80%.
In turn, `CCn1c(-n2ncnc2N)nc2cncc(C(C)=NOCC3CC3)c21` [Compound 141] came in with a melting point of 151 to 163 °C. Besides, the pest or weed control at 200 ppm in [13] is not below 80%. For the same molecule, in [2], the inhibition at 20 ppm is not below 80%. The inhibition at 20 ppm in data set [3] was not below 80%. Also, the inhibition at 20 ppm in [4] was not below 80%. Besides, the inhibition at 20 ppm in [7] is not below 80%. Moreover, in [9], the inhibition at 20 ppm is not below 80%. The pest or weed control at 200 ppm in data set [10] was not below 80%. In addition, the inhibition at 20 ppm in data set [11] was not below 80%.
In the case of `CCn1c(-n2ncnc2N)nc2cncc(/C(C)=N/OC/C=C(\C)Cl)c21` [Compound 154, 2-[7-[(E)-N-[(E)-3-chlorobut-2-enoxy]-C-methyl-carbonimidoyl]-1-ethyl-imidazo[4,5-c]pyridin-2-yl]-1,2,4-triazol-3-amine], the pest or weed control at 200 ppm in data set [13], in data set [5], in data set [6] and in data set [10] was not below 80% each time. Also, the inhibition at 20 ppm in [1], in data set [2], in data set [4], in data set [9] and in [11] was not below 80% throughout.
In the case of `CCn1c(-n2ncnc2N)nc2cncc(C(C)=NOCC=C(Cl)Cl)c21` [Compound 155], the inhibition at 20 ppm in data set [1], in data set [2], in data set [3], in data set [4], in data set [8] and in data set [9] was not below 80% in each case. Besides, the inhibition at 20 ppm in data set [11] was not below 80%. Further, the pest or weed control at 200 ppm in data set [5], in [6], in data set [10] and in data set [12] was not below 80% throughout.

For orientation: inhibition means the drop in the measured response relative to a control, in per cent. What is called melting point is the temperature of the solid-liquid transition.
